Results on 3 compounds are retold here after patent US9549554B2, “Insecticidal synergistic combinations of phthaldiamide derivatives and abamectin, emamectin, lepimectin or milbemectin” (BAYER CROPSCIENCE AKTIENGESELLSCHAFT, priority 2013, dated 2017).

The subject of one data set is Phaedon cochleariae. The data set is described as follows: Phaedon cochleariae spray test (Chinese cabbage leaf disks). Format: in vivo. As to conditions: mustard beetle larvae. The source says:
Solvent: 78.0 parts by weight of acetone
• 1.5 parts by weight of dimethylformamide Emulsifier: 0.5 parts by weight of alkylaryl polyglycolether
Once dry, the leaf disks are infested with mustard beetle larvae (Phaedon cochleariae).
100% means all beetle larvae have been killed and 0% means none of the beetle larvae have been killed.

The next data set relates to Spodoptera frugiperda. As to the kind of experiment: whole plant or invertebrate. How it is done: Solvent: 78.0 parts by weight acetone
• 1.5 parts by weight dimethylformamide Emulsifier: 0.5 parts by weight alkylarylpolyglycolether
To produce a suitable preparation of a spore suspension the spores are diluted with emulsifier-containing water to the desired concentration.
Maize (Zea mais) leaf sections are sprayed with a preparation of the active ingredient of the desired concentration. Once dry, the leaf sections are infested with fall armyworm larvae (Spodoptera frugiperda).
After the specified period of time, mortality in % is determined. 100% means all caterpillars have been killed and 0% means none of the caterpillars have been killed. The mortality values determined thus are recalculated using the Colby-formula (see sheet 1).

In the next data set the test system is Myzus persicae. As to the kind of experiment: Myzus persicae spray test (infested cabbage leaves). Format: in vivo. To be noted: green peach aphid. The protocol:
Solvent: 7 parts by weight of dimethylformamide
Emulsifier: alkylaryl polyglycolether
Further test concentrations are prepared by dilution with emulsifier containing water Ammonium salt and/or penetration enhancer in a dosage of 1000 ppm are added to the desired concentration if necessary.
Cabbage leaves (Brassica oleracea) which are heavily infested by the green peach aphid (Myzus persicae) are treated by being sprayed with the preparation of the active compound of the desired concentration.

Where [1] appears, read: Spodoptera frugiperda, in Zea mays, 144 h, read-out: Efficacy in % after 6d (mortality).

Consider `Cc1cc(C(F)(C(F)(F)F)C(F)(F)F)ccc1NC(=O)c1cccc(Cl)c1C(=O)NC(C)(C)C#N` [(I-5)], for which the mortality at 4 g/ha in the data set with Phaedon cochleariae (Phaedon cochleariae, foliar, 144 h, 4 g ai/ha, after 6 d, read-out: Efficacy in % after 6d (mortality)) amounted to 0%. In the data set with Spodoptera frugiperda (setting [1]), the mortality at 0.25 g/ha is 0% and the mortality at 3 g/ha was 33%. Besides, the mortality at 3 ppm in the data set on Myzus persicae (Myzus persicae, 144 h, 3 ppm, after 6 d, read-out: Efficacy in % after 6d (mortality)) was found to be 0%. In addition, the mortality at 75 ppm in the data set on Myzus persicae (Myzus persicae, 144 h, 75 ppm, after 6 d, read-out: Efficacy in % after 6d (mortality)) turned out to be 0%.
Regarding “Abamectin [Abamectin (II-1), reference compound]”, the “Efficacy in % after 6d (mortality)” value in the data set with Phaedon cochleariae (0.032 g ai/ha) is recorded as 0%; with Spodoptera frugiperda (15 g ai/ha, fall armyworm larvae, after 6 d), 0%.
“Emamectin benzoate [Emamectin-Benzoate, reference compound]”: the “Efficacy in % after 6d (mortality)” value with Myzus persicae (15 ppm) amounted to 15%.

As a reminder, the mortality is the share of the test organisms that died.
